# Measurements published in patent EP4741401A1, “BENZOTHIAZOIMIDAZOLYL COMPOUND AND USE THEREOF” (ER Stress Research Institute, Inc., priority 2023, dated 2025).
# pIC50: −log10 of the molar value.
# How the values were obtained:
# 293A cells = assay: Cytoprotection under endoplasmic reticulum stress conditions (Tm-induced cell death); format: cell-based; settings: compound concentration inhibiting Tm-induced cell death by 50%, Tm 0.2 µg/mL, reporter cells
# Method: The reporter cells same as those used in Example 1 were placed in each well of a 96-well assay plate and were treated with Tm at a final concentration of 0.2 µg/mL and the test compound. […]
# [1] = test system: cell growth inhibition by endoplasmic reticulum stress; settings: from WO2019/131656A; read-out: 50% inhibitory concentration for cell growth inhibition by endoplasmic reticulum stress; cited from earlier work
# [2] = test system: endoplasmic reticulum stress response induced by Tm; assay: Suppression of endoplasmic reticulum stress response (ERSE2-UPRE-AARE-EGFP reporter fluorescence); format: cell-based; settings: 293A reporter cells, incubated at 37°C overnight, read-out: Suppression rank of endoplasmic reticulum stress response
# Method: A solution of the compound synthesized in "(1) Synthesis of benzothiazoimidazolyl compound" was appropriately diluted with a DMEM solution containing 10% fetal bovine serum (FBS), and the diluted solution was added to a 384-well assay plate at 10 µL/well. Next, 30 µL of a culture medium containing the reporter cells and 10 µL of the Tm solution were mixed, and the mixture was added to the 384-well assay plate at 40 µL/well such that the cell density was 18 × 10^3 cells/well, and the whole was incubated at 37°C overnight.
# A multi-plate reader Citation 3 (Bio-Tek) was used to determine the EGFP fluorescence intensity (excitation wavelength: 485 nm, fluorescence wavelength: 528 nm) when the test compound was added. A smaller fluorescence intensity indicates more suppression of the increase in activity of the endoplasmic reticulum stress marker induced by Tm.
# A "control" containing the Tm solution and, in place of the test compound solution, an equal volume of DMSO was subjected to the measurement of fluorescence intensity in a similar manner. In addition, a "background" containing a solution prepared in the same manner as for the Tm solution except that no Tm was added and containing, in place of the test compound solution, an equal volume of DMSO was subjected to the measurement of fluorescence intensity in a similar manner.
# The fluorescence intensity was determined while the concentration of the test compound was varied, and the 50% effective concentration (IC50) of suppressing the endoplasmic reticulum stress response induced by Tm was calculated.
# FNDI model mice = assay: Number of mutant protein aggregates (inclusion bodies) in vasopressin neurons of brain tissue; format: in vivo; settings: oral, 100 mg/kg/day, once daily for 28 days, inclusion bodies of 4.5 µm or more in vasopressin neurons
# Method: To FNDI model mice, the above IBT-30-containing preparation was forcibly administered orally once daily for 28 days such that the dosage of IBT-30 was 100 mg/kg/day (n=6). In a similar manner, a vehicle preparation free from IBT-30 was forcibly administered orally (n=6). […]
# [3] = test system: endogenous molecular chaperones; assay: Induction of endogenous molecular chaperones in cells; format: cell-based; settings: applied to cells
# [4] = test system: Familial neurogenic diabetes insipidus model mice; assay: Suppression of urine output increase in FNDI model mice; format: in vivo; settings: oral, 30 mg/kg/day or 100 mg/kg/day, once daily for 28 days
# Method: Familial neurogenic diabetes insipidus model mice created by Arima et al. at Nagoya University and carrying a knock-in mutation (Cys98stop) in the neurophysin II gene that causes familial neurogenic diabetes insipidus (FNDI) in humans (Am J Physiol Regul Integr Comp Physiol 2009 296:R1641-9) were divided into two groups. To each group, an IBT-30-containing preparation was forcibly administered orally such that the dosage of IBT-30 was 30 mg/kg/day or 100 mg/kg/day (n=6). The IBT-30-containing preparation was prepared as a suspension of IBT-30 at a final concentration of 0.5% by weight in carboxymethyl cellulose. The oral administration was performed once daily via a feeding tube for 28 days. The urine output was measured daily throughout the 28 days when IBT-30 was administered.
pIC50 [2],SMILES,pIC50 (293A cells),pIC50 [1],number of inclusion bodies (mutant protein aggregates) (FNDI model mice),induction of endogenous molecular chaperones [3],urine output [4]
6.00 to 7.00,"CS(=O)(=O)c1ccc2c(c1)sc1nc(-c3ccccc3)cn12 [IBT-21, reference compound]",6.21,6.21,–,–,–
≥ 8.00,"COc1cc(-c2cn3c(n2)sc2cc(S(C)(=O)=O)ccc23)ccc1C(F)(F)F [IBT-30, 2-(3-Methoxy-4-(trifluoromethyl)phenyl)-7-(methylsulfonyl)benzo[d]imidazo[2,1-b]thiazole]",8.40,–,significantly reduced,not induced,decreases in a dose-dependent manner
< 6.00,"CC(C)(C)OC(=O)NCCOCCNC(=O)CCc1cccc2c1sc1nc(-c3ccc(C(F)(F)F)cc3)cn12 [IBT-74, tert-butyl (2-(2-(3-(2-(4-(trifluoromethyl)phenyl)benzo[d]imidazo[2,1-b]thiazol-8-yl)propanamido)ethoxy)ethyl)carbamate]",5.43,–,–,–,–
< 6.00,"CC(C)(C)OC(=O)NCCOCCOCCOc1cccc(-c2cn3c(n2)sc2cc(S(C)(=O)=O)ccc23)c1 [IBT-76, tert-butyl (2-(2-(2-(3-(7-(methylsulfonyl)benzo[d]imidazo[2,1-b]thiazol-2-yl)phenoxy)ethoxy)ethoxy)ethyl)carbamate]",5.31,–,–,–,–

# Further lines, the compound ahead of its results:
SMILES,pIC50 [2],pIC50 (293A cells),pIC50 [1],number of inclusion bodies (mutant protein aggregates) (FNDI model mice),induction of endogenous molecular chaperones [3],urine output [4]
"O=C(O)CCCc1ccccc1 [Compound 4-PBA, 4-phenylbutyric acid, reference compound]",–,2.40,2.27,–,–,–
"C[C@H](CCC(=O)NCCS(=O)(=O)O)[C@H]1CC[C@H]2[C@@H]3[C@@H](O)C[C@@H]4C[C@H](O)CC[C@]4(C)[C@H]3CC[C@]12C [TUDCA, tauroursodeoxycholic acid, reference compound]",–,4.70,2.68,–,–,–
CCCC(=O)NCCc1csc(-c2ccc(Cl)cc2)n1 [azoramide],–,–,4.07,–,–,–
